The text below walks through data of patent publication US20100130598A1, “METHODS FOR INDUCING PROGRAMMED CELL DEATH” (Novogen Research Pty Ltd., priority 2008, published 2010).

One series concerns EOC tumors. Kind of series: Mouse EOC xenograft study. Format: in vivo. The conditions noted are these: 3 weeks; for T/C values (maximal tumor inhibition, treated/control): intra-peritoneal, Compound 1 100 mg/kg every day, Carboplatin 40 mg/kg q×7d, Paclitaxel 10 mg/kg q×3d. The method, then:
Mouse xenograft studies. The in vivo study as approved by the Yale University Institutional Animal Care & Use Committee. Cells (1×10^6 cells) were resuspended in 200 μ1 total volume of 50% RPMI and 50% BD Matrigel Matrix (BD Biosciences, Bedford, Mass.) and injected subcutaneously into the right flank of NCR nude mice. Intra-peritoneal therapy commenced eight days post-inoculation as follows: Paclitaxel 10 mg/kg q×3d, Carboplatin 40 mg/kg q×7d, and Compound 1 in 20% HPBCD, 100 mg/kg every day. Control groups received 20% HPBCD in PBS. Mice were treated and observed for 3 weeks. Tumor size was determined by caliper measurements and anti-tumor activity was analyzed with respect to maximal tumor inhibition (treated/control, T/C) as described previously (Kamsteeg et al, 2003).

For a further series, the system named is MIAPaCa-2. In words: MIAPaCa-2 pancreatic cancer xenograft. It is filed as in vivo, Balb/c nude mice. Conditions: MIAPaCa-2 model; Compound 10 100 mg/kg oral qd×12, gemcitabine 20 mg/kg q3d×4, alone or combined. Here is the method:
For xenograft studies, five week old male Balb/c nude mice were maintained on an isoflavone-free diet to remove background isoflavone levels contributed by standard feed. On the day of inoculation a suspension of MIAPaCa2 or HPAC cells was prepared in DMEM (-FBS), chilled on ice and then an equal volume of matrigel (BD) was added. Mice were inoculated subcutaneously with 3×10^6 MIAPaCa2 or HPAC cells bilaterally (midway between the axillary and inguinal region) along the dorsal surface, ensuring that cells to be injected were growing at mid-end log phase. Tumor growth was monitored over 10-15 days. Compound 10 was given orally by gavage in 1% carboxy methyl cellulose (CMC) as a vehicle. Gemcitabine was injected intraperiponeally in PBS. In combination groups animals were first dosed with Compound 10 and then dosed with gemcitabine using the respective administration schedule, dosage and route of delivery stated.

The next series concerns caspases-3/7, -8, and -9. Kind of series: Caspase-3/7, -8, and -9 activity assay (Caspase-Glo) on cell lysates. Conditions: EOC cells, 24 h; increasing concentrations of Compound 1 or 2 μM Paclitaxel. It is filed as cell-based, human. From the text: Protein preparation and cellular fractionation. After drug treatment, protein was extracted and measured as previously described (Alvero et al, 2006). For separation of the cytoplasmic and mitochondrial fractions, cell pellets were processed using the ApoAlert™ Cell Fractionation Kit (BD Biosciences, San Jose, Calif.) according to the manufacturer's instructions. For separation of the cytoplasmic and nuclear fractions, pellets were processed using NE-PER Nuclear and Cytoplasmic Extraction (Pierce Biotechnology, Inc., Rockford, Ill.). Caspase-3/7, -8, and -9 activity assay. Ten μg of protein in a 50 μl total volume was mixed with 50 μl of equilibrated Caspase-Glo^10 3/7, 8, or 9 reagents (Promega). After incubating at room temperature for 1 h, luminescence was measured using TD 20/20 Luminometer (Turner Designs, Sunnyvale, Calif.). Blank values were subtracted and fold-increase in activity was determined in relation to the control non-treatment.

Another series concerns MIAPaCa-2 cells. Kind of series: Apoptosis/necrosis by FACS (Annexin-V-FITC/PI), MIAPaCa-2. It is filed as cell-based, human. Conditions: MIAPaCa-2, 10 μM zVAD-fmk 1 h pre-treatment; 10 μM Compound 10 or 50 ng/mL TRAIL. The method, then:
Cells. Human pancreatic cell lines HPAC, MIAPaCa-2 and PANC-1 were obtained from the ATCC. (Manassas, Va.). The cells were maintained in DMEM media with Gln and high glucose (Mediatech, Manassas, Va.) with 10% fetal bovine serum (FBS, HyClone, Logan, Utah) and pencillin/streptomycin.
FACS Analysis. Apoptosis was measured by FACS analysis using Annexin-V-FITC and propidium iodide (PI) (Biovision, Mountain View, Calif.) as probes (Ahn et al., 2003). Mitochondrial membrane potential was measured by FACS analysis using JC-1 (Biovision) as a probe (Ahn et al., 2003). Cell cycle was analyzed on ethanol-fixed, RNaseA-treated cells staining with PI. In each spectrum, 10,000 gated events were recorded and analyzed with a FACSCalibur (BD Biosciences. San Jose, Calif.). All experiments were done in triplicate, error bars represent one standard deviation. Caspase inhibitor I (zVAD-fmk) was obtained from Calbiochem.

With `N.N.O=C([O-])C1(C(=O)[O-])CCC1.[Pt+2]` [carboplatin, reference compound], the “T/C values (maximal tumor inhibition, treated/control)” value in the series with EOC tumors is on record as 58%. The toxic side effects entry in the series on EOC tumors (xenograft mice) was “severe weight loss and cachexia”.

Regarding `Nc1ccn([C@@H]2O[C@H](CO)[C@@H](O)C2(F)F)c(=O)n1` [gemcitabine, reference compound], in the series on MIAPaCa-2, the “% T/C (mean terminal tumor burden)” value was determined as 79%.

For the molecule `CC(=O)O[C@H]1C(=O)[C@@]2(C)[C@H]([C@H](OC(=O)c3ccccc3)[C@]3(O)C[C@H](OC(=O)[C@H](O)[C@@H](NC(=O)c4ccccc4)c4ccccc4)C(C)=C1C3(C)C)[C@]1(OC(C)=O)CO[C@@H]1C[C@@H]2O` [Paclitaxel, reference compound], the “caspase-3/7, -8, and -9 activities” value in the series with caspases-3/7, -8, and -9 is reported as “increase”. Further, the “T/C values (maximal tumor inhibition, treated/control)” value with EOC tumors is listed as 58%.

B1: TRAIL: TRAIL (Alexis), 50 ng/mL, positive caspase-dependent control (protein, UniProt P50591 1-281, looked up)
Tumor necrosis factor ligand …: MAMMEVQGGPSLGQTCVLIVIFTVLLQSLCVAVTYVYFTNELKQMQDKYSKSGIACFLKEDDSYWDPNDEESMNSPCWQVKWQLRQLVRKMILRTSEETISTVQEKQQNISPLVRERGPQRVAAHITGTRGRSNTLSSPNSKNEKALGRKINSWESSRSGHSFLSNLHLRNGELVIHEKGFYYIYSQTYFRFQEEIKENTKNDKQMVQYIYKYTSYPDPILLMKSARNSCWSKDAEYGLYSIYQGGIFELKENDRIFVSVTNEHLIDMDHEASFFGAFLVG
Regarding B1, the “effect of zVAD-fmk pre-treatment on induced apoptosis” value with MIAPaCa-2 cells is given as “inhibition”.
